Patent publication US20060292653A1, “Metal mediated fluorescence superquenching assays for detection of phosphorylation and dephosphorylation of quencher-labeled substrates” (priority 2005, published 2006)

Key:
Assay type in all cases: biochemical
PI3 delta = target: T1, PI3 delta (Homo sapiens, UniProt O00329); assay: Enhancer activity, real-time (kinetic) versus endpoint monitoring
T1 construct: purchased Upstate (Lake Placid, N.Y.)
Description: (§1) Kinetic or real-time assays allow one to observe the mode of action of inhibitors and activator of enzyme activity in “real time”. Several inhibitor profiles are contemplated herein.
(§2) Another type of inhibitor profile utilizes the mode of action of enhancers. Enhancers may cause a very steep increase in activity (compared to control) within several minutes of reaction and then flatten out over time to an activity equal to that of the control. Thus, endpoint measurement could miss these enhancers. For example, Trypohostin 35, Trypohostin 25 and GW 5074 are enhancers of PI3 alpha, beta, and delta, respectively, in real time, and result in a >50% increase of activity within 5 minutes of reaction compared to ˜20% when monitored in endpoint mode. Enhancers may not be of therapeutic value for PI3Ks (since their pathological effect is exerted mainly by over-activity to begin with) but knowledge of chemical structure of enhancers may facilitate identification and/or confirmation of environmental pathogens, which may cause disease.

PI3K δ = target: T2, PI3K δ (Homo sapiens, UniProt O00329); conditions: ratiometric 490 nm/574 nm
T2 construct: purchased Upstate (Lake Placid, N.Y.)
Description: Percent activities are plotted for each compound screened using the ratio of wavelengths at 490 nm/574 nm. Inhibition values were calculated relative to positive and negative controls wells and corrected for background (filled squares, filled diamonds). […] Final concentrations of enzyme, substrate and ATP were 2.6 nM, 250 nM and 50 μM. The delta RFU between reactions in the presence and absence of enzyme were obtained and used to calculate % inhibition.

PI3 beta = target: T3, PI3 beta (Homo sapiens, UniProt P42338); assay: Enhancer activity, real-time (kinetic) versus endpoint monitoring
T3 construct: purchased Upstate (Lake Placid, N.Y.)
Description: as §1, §2

PI3 alpha = target: T4, PI3 alpha (Homo sapiens, UniProt P42336); assay: as above
T4 construct: purchased Upstate (Lake Placid, N.Y.)
Description: as §1, §2

[1] = real time, within 5 minutes of reaction

T3 sequence (P42338 whole entry): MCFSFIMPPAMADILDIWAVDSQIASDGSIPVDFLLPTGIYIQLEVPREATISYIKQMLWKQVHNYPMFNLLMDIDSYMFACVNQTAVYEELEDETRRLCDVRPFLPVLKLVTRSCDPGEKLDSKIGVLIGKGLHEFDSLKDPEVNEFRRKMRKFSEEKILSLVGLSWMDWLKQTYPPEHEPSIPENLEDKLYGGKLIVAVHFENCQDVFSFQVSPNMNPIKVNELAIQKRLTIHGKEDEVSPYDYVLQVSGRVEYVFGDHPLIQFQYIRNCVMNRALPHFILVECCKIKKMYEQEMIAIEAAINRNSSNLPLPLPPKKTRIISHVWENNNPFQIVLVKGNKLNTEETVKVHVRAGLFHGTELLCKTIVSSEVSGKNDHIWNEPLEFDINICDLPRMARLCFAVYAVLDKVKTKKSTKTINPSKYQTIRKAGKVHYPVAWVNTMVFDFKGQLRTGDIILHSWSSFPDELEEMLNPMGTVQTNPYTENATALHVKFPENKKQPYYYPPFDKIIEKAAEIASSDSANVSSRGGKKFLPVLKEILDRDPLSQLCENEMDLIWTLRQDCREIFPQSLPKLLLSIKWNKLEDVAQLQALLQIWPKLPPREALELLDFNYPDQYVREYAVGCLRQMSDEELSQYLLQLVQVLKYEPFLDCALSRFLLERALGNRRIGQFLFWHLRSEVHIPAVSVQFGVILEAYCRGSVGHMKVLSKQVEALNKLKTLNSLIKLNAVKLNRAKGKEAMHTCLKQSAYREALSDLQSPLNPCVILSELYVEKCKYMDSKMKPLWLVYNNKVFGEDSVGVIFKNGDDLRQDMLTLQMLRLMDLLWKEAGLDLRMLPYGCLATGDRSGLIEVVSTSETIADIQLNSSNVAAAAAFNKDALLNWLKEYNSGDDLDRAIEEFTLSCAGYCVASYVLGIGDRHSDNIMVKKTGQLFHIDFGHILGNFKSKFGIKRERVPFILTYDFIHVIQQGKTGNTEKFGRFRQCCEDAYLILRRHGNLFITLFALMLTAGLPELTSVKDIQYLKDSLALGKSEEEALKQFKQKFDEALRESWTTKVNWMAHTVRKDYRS
T3 sequence (P27986 whole entry partner): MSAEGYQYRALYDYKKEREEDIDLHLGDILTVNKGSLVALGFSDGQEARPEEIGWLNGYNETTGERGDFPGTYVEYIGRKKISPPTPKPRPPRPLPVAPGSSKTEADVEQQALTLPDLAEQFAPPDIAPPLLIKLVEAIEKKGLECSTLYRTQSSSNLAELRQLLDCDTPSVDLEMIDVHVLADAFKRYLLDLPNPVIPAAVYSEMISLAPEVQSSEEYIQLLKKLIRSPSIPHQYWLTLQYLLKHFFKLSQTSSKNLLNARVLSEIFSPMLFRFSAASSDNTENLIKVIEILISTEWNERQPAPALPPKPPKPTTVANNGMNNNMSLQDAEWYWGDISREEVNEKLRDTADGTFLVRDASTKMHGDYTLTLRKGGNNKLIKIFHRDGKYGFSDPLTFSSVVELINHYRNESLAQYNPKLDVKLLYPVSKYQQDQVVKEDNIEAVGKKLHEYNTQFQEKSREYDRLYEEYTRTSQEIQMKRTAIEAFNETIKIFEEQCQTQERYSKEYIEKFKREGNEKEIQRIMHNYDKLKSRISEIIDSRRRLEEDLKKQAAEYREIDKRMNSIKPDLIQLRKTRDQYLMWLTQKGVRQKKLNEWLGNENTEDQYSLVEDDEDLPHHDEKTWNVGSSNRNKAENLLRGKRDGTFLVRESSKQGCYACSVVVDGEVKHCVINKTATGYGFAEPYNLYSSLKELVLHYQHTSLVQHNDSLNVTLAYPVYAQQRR
T1 sequence (O00329 whole entry, species assumed): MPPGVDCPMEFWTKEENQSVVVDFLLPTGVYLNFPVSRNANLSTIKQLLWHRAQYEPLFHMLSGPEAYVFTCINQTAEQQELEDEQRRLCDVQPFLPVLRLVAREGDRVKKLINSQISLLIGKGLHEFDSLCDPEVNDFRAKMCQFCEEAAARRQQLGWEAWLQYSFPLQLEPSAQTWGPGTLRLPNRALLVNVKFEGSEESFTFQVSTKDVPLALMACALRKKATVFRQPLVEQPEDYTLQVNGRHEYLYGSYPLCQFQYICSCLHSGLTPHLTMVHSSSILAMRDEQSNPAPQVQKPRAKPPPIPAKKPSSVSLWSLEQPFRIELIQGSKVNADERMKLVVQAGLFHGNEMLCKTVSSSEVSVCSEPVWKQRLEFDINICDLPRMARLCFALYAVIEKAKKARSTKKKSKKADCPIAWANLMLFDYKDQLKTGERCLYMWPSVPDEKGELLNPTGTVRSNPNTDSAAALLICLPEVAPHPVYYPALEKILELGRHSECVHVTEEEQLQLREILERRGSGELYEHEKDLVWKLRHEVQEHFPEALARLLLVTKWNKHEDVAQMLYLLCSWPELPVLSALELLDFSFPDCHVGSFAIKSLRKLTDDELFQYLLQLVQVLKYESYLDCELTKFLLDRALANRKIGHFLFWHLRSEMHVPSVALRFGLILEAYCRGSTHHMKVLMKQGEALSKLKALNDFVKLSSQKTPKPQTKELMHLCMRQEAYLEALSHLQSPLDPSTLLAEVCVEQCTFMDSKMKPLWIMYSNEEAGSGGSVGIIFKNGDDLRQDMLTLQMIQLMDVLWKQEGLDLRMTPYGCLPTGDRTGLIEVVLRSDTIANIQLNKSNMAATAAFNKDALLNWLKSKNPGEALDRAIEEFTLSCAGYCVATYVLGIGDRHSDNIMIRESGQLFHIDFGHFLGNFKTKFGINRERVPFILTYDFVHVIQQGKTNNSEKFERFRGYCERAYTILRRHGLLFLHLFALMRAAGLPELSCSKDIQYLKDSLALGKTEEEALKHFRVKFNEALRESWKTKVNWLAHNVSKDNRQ
T1 sequence (P27986 whole entry partner, species assumed): as the sequence (P27986 whole entry partner) above
T4 sequence (P42336 whole entry, species assumed): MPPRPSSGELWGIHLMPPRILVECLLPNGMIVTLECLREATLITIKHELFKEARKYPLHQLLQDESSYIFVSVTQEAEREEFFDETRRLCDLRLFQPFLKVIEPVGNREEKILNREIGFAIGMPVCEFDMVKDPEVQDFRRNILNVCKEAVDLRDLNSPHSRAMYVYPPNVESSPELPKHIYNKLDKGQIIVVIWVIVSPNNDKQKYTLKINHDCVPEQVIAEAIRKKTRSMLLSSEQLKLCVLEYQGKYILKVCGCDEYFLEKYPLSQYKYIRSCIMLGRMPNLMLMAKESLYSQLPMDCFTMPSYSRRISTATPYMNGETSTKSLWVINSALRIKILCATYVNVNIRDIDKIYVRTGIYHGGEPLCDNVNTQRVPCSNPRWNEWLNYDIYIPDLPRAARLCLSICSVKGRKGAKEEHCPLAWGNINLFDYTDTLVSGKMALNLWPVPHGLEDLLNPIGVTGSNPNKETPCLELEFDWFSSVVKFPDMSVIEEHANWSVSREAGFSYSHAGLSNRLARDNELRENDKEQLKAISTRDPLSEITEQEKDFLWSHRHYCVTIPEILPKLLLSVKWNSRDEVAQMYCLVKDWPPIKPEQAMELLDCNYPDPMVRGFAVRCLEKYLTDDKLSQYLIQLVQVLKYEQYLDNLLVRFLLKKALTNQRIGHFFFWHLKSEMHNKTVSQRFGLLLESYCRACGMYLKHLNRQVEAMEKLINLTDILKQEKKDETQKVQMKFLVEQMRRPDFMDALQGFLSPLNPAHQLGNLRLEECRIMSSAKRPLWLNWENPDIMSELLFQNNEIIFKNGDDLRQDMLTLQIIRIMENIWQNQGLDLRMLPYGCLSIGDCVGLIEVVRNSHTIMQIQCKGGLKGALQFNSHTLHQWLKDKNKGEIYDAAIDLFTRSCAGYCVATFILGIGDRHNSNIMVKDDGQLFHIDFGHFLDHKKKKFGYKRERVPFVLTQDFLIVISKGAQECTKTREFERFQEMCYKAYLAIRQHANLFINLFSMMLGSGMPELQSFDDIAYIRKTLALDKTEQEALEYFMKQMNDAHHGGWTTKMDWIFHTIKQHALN
T4 sequence (P27986 whole entry partner, species assumed): as the sequence (P27986 whole entry partner) above
T2 sequence (O00329 whole entry, species assumed): as the sequence (O00329 whole entry, species assumed) above
T2 sequence (P27986 whole entry partner, species assumed): as the sequence (P27986 whole entry partner) above

## O=C1Nc2ccc(I)cc2/C1=C/c1cc(Br)c(O)c(Br)c1 [GW 5074]
PI3 delta; endpoint mode
  increase of activity compared to control: ~20%
PI3 delta; [1]
  increase of activity compared to control: > 50%

## O.O.O=c1c(O)c(-c2ccc(O)c(O)c2)oc2cc(O)cc(O)c12 [Quercetin Dihydrate]
PI3K δ
  identification as inhibitor in the 84 compound screen: correctly identified

## N#CC(C#N)=Cc1cc(O)c(O)c(O)c1 [Trypohostin 25]
PI3 beta; endpoint mode
  increase of activity compared to control: ~20%
PI3 beta; [1]
  increase of activity compared to control: > 50%

## Trypohostin 35
PI3 alpha; endpoint mode
  increase of activity compared to control: ~20%
PI3 alpha; [1]
  increase of activity compared to control: > 50%
